Source: ChEMBL document CHEMBL4828719, “H2dpa derivatives containing pentadentate ligands: An acyclic adjuvant potentiates meropenem activity in vitro and in vivo against metallo-β-lactamase-producing Enterobacterales” (Eur J Med Chem, 2021)
pIC50, pKi: −log10 of the molar value. In brackets after ≈: the same amount, converted by molar mass. Activity calls are given as the source filed them. The calls are words filed in the database; no cut-off is given here.

Tests used:
Klebsiella pneumoniae [1] = test: Antibiotic adjuvant activity against meropenem-treated NDM-producing carbapenem resistant Klebsiella pneumoniae infected in BALB/c mouse sepsis model assessed as mouse rescue at 10 mg/kg, ip in the presence of meropenem measured after 48 hrs; type: functional
Klebsiella pneumoniae [2] = test: Antibacterial activity against NDM-producing carbapenem resistant Klebsiella pneumoniae infected in BALB/c mouse sepsis model assessed as animal survival at 10 mg/kg, ip measured after 48 hrs; type: functional, organism-based
Escherichia coli [3] = test: Antibacterial activity against IMP-4 producing Escherichia coli DH5 alpha assessed as bacterial growth at 8 ug/ml incubated for 16 to 20 hrs by CLSI based microdilution method; type: functional; details: dose 8 µg/ml; time 16-20 hrs
[4] = Zinc chelation-dependent inhibition of NDM-1 (unknown origin) expressed in Escherichia coli BL21 (DE3) using meropenem as substrate preincubated with enzyme for 5 to 10 mins followed by substrate addition
Escherichia coli [5] = test: Antibacterial activity against IMP-4 producing Escherichia coli DH5alpha assessed as decrease in bacterial growth incubated for 16 to 20 hrs by CLSI based microdilution method; type: functional; details: DH5[alpha], time 16-20 hrs
Escherichia coli [6] = test: Antibacterial activity against MBL producing Escherichia coli isolates assessed as inhibition of bacterial growth at 64 ug/ml incubated for 16 to 20 hrs by CLSI based microdilution method; type: functional, organism-based; details: dose 64.0 µg/ml, time 16-20 hrs
Klebsiella pneumoniae [7] = test: Antibacterial activity against MBL producing Klebsiella pneumoniae isolates assessed as inhibition of bacterial growth at 64 ug/ml incubated for 16 to 20 hrs by CLSI based microdilution method; type: functional, organism-based; details: dose 64.0 µg/ml, time 16-20 hrs
Escherichia coli [8] = test: Antibiotic adjuvant activity against meropenem-treated VIM-1 producing Escherichia coli DH5 alpha assessed as inhibition of bacterial growth at 8 ug/ml incubated for 16 to 20 hrs in the presence of meropenem and 1 to 10 uM zinc sulfate by CLSI based microdilution method; type: functional, organism-based; details: dose 8.0 µg/ml, time 16-20 hrs
Escherichia coli [9] = test: Antibiotic adjuvant activity against meropenem-treated IMP-4 producing Escherichia coli DH5 alpha assessed as bacterial growth at 8 ug/ml incubated for 16 to 20 hrs in the presence of meropenem and 100 uM zinc sulfate by CLSI based microdilution method; type: functional; details: dose 8 µg/ml; time 16-20 hrs
[10] = Toxicity in sheep RBC assessed as induction of hemolysis measured after 1 hr; type: tissue-based, Ovis aries, Erythrocyte; details: sheep red blood cells
[11] = Toxicity in sheep RBC assessed as induction of hemolysis at 1024 microg/ml measured after 1 hr relative to control; type: tissue-based, Ovis aries, Erythrocyte; details: sheep red blood cells, at 1024 µg/mL, read-out: Activity
GES1 = test: Cytotoxicity against human GES1 cells assessed as live cells by measuring green fluorescence at 32 ug/ml measured after 24 hrs by calceinAM/propidium iodide staining based fluorescence microscopy; type: cell-based; details: ges1, 24 h, dose 32 µg/ml
[12] = Acute toxicity in BALB/c mouse assessed as survival rate at 10 to 50 mg/kg, ip administered as single dose measured for 72 hrs; type: organism-based; details: in vivo, dose 10-50 mg/kg
[13] = Acute toxicity in BALB/c mouse assessed as pathological changes in spleen at 50 mg/kg, ip administered as single dose measured after 24 hrs by hematoxylin and eosin staining based assay; type: organism-based; details: in vivo
[14] = Acute toxicity in BALB/c mouse assessed as pathological changes in kidney at 50 mg/kg, ip administered as single dose measured after 24 hrs by hematoxylin and eosin staining based assay; type: organism-based; details: in vivo
[15] = Acute toxicity in BALB/c mouse assessed as change in hemoglobin level at 50 mg/kg, ip administered as single dose measured after 24 hrs; type: organism-based; details: in vivo
[16] = Acute toxicity in BALB/cmouse assessed as change in hematocrit level at 50 mg/kg, ip administered as single dose measured after 24 hrs; type: organism-based, BALB/c; details: mouse, in vivo
[17] = Acute toxicity in BALB/c mouse assessed as change in mean corpuscular volume at 50 mg/kg, ip administered as single dose measured after 24 hrs; type: organism-based; details: in vivo
[18] = Acute toxicity in BALB/c mouse assessed as change in urea level in serum at 50 mg/kg, ip administered as single dose measured after 24 hrs; type: organism-based; details: in vivo
[19] = Acute toxicity in BALB/c mouse assessed as change in creatinine level in serum at 50 mg/kg, ip administered as single dose measured after 24 hrs; type: organism-based; details: in vivo
[20] = Non competitive inhibition of NDM-1 (unknown origin) assessed as inhibition of substrate hydrolysis by measuring decrease in Vmax using meropenem as substrate preincubated with enzyme for 5 mins followed by substrate addition by Lineweaver-Burk plot analysis
[21] = Non competitive inhibition of IMP-1 (unknown origin) assessed as inhibition of substrate hydrolysis by measuring decrease in Vmax using imipenem as substrate preincubated with enzyme for 5 mins followed by substrate addition by Lineweaver-Burk plot analysis
[22] = Zinc chelation-dependent inhibition of IMP-1 (unknown origin) expressed in Escherichia coli DH5 alpha using imipenem as substrate preincubated with enzyme for 5 mins followed by substrate addition in the presence of zinc sulfate
[23] = Zinc chelation-dependent inhibition of VIM-2 (unknown origin) expressed in Escherichia coli DH5 alpha using nitrocefin as substrate preincubated with enzyme for 5 mins followed by substrate addition in presence of zinc sulfate
Escherichia coli [24] = test: Antibiotic adjuvant activity against meropenem-treated IMP-4 producing Escherichia coli DH5 alpha assessed as bacterial growth at 8 ug/ml incubated for 16 to 20 hrs in the presence of meropenem by CLSI based microdilution method; type: functional; details: dose 8 µg/ml; time 16-20 hrs
Klebsiella pneumoniae [25] = test: Antibiotic adjuvant activity against meropenem-treated NDM-producing carbapenem resistant Klebsiella pneumoniae infected in BALB/c mouse sepsis model assessed as reduction of bacterial load in liver at 10 mg/kg, ip in the presence of meropenem observed for 2 days; type: functional, organism-based; details: time 2.0 day
Klebsiella pneumoniae [26] = test: Antibiotic adjuvant activity against meropenem-treated NDM-producing carbapenem resistant Klebsiella pneumoniae infected in BALB/c mouse sepsis model assessed as reduction of bacterial load in spleen at 10 mg/kg, ip in the presence of meropenem observed for 2 days; type: functional, organism-based; details: time 2.0 day
Klebsiella pneumoniae [27] = test: Antibacterial activity against NDM-producing carbapenem resistant Klebsiella pneumoniae infected in BALB/c mouse sepsis model assessed as swollen and degenerated liver cells with localized focal necrosis at 10 mg/kg, ip observed for 2 days by HE staining based assay; type: functional, organism-based; details: time 2.0 day
Klebsiella pneumoniae [28] = test: Antibacterial activity against NDM-producing carbapenem resistant Klebsiella pneumoniae infected in BALB/c mouse sepsis model assessed as dilated and congested central vein with neutrophil cell infiltration within the red pulp of the spleen at 10 mg/kg, ip observed for 2 days by HE staining based assay; type: functional, organism-based; details: time 2.0 day
Klebsiella pneumoniae [29] = test: Antibiotic adjuvant activity against meropenem-treated NDM-producing carbapenem resistant Klebsiella pneumoniae infected in BALB/c mouse sepsis model assessed as complete liver lobule structure with radially arranged hepatic cords and visible central veins at 10 mg/kg, ip in the presence of meropenem observed for 2 days by HE staining based assay; type: functional, organism-based; details: time 2.0 day
Escherichia coli [30] = test: Synergistic antibacterial activity against IMP-4 producing Escherichia coli DH5alpha assessed as fractional inhibitory concentration index incubated for 16 to 20 hrs in presence of meropenem by checkerboard assay; type: functional, DH5[alpha]; details: time 16-20 hrs
Escherichia coli [31] = test: Synergistic antibacterial activity against NDM-1 producing Escherichia coli DH5alpha assessed as fractional inhibitory concentration index incubated for 16 to 20 hrs in presence of meropenem by checkerboard assay; type: functional, DH5[alpha]; details: time 16-20 hrs
Escherichia coli [32] = test: Antibiotic adjuvant activity against VIM-1 producing Escherichia coli DH5alpha assessed as potentiation of meropenem-induced antibacterial activity incubated for 16 to 20 hrs by agar disc diffusion assay; type: functional, organism-based; details: DH5[alpha], time 16-20 hrs

| SMILES | Activity (Klebsiella pneumoniae [1]) [%] | Activity (Klebsiella pneumoniae [2]) | Activity (Escherichia coli [3]) [%] | pIC50 [4] | MIC (Escherichia coli [5]) [µg/mL] | Activity (Escherichia coli [6]) | Activity (Klebsiella pneumoniae [7]) | Activity (Escherichia coli [8]) | Activity (Escherichia coli [9]) [%] | HC50 at 1 h [10] [µg/mL] | hemolysis at 1 h, 1024 microg/ml [11] [%] | Activity (GES1) | survival at 72 h [12] [%] | Activity [13] | Activity [14] | Activity [15] | Activity [16] | Activity [17] | Activity [18] | Activity [19] | also measured |
| --- | --- | --- | --- | --- | --- | --- | --- | --- | --- | --- | --- | --- | --- | --- | --- | --- | --- | --- | --- | --- | --- |
| C[C@H](C(=O)O)N(Cc1cccc(C(=O)O)n1)Cc1cccc(C(=O)O)n1 | 83 | inactive | 95 | 5.80 | 128 (≈ 356 µM) | inactive | inactive | Active | 100 | > 1020 | < 7 | Non-Toxic | 100 | Non-Toxic | Non-Toxic | Non-Toxic | Non-Toxic | Non-Toxic | Non-Toxic | Non-Toxic | pKi [20]: 5.80; pKi [21]: 5.80; Activity [22]: inactive; Activity [23]: inactive; Activity (Escherichia coli [24]): <10%; Activity (Klebsiella pneumoniae [25]): Active; Activity (Klebsiella pneumoniae [26]): Active; Activity (Klebsiella pneumoniae [27]): inactive; Activity (Klebsiella pneumoniae [28]): inactive; Activity (Klebsiella pneumoniae [29]): Active; fractional inhibitory concentration index (FICI) (Escherichia coli [30]): 0.14; fractional inhibitory concentration index (FICI) (Escherichia coli [31]): 0.07; Activity (Escherichia coli [32]): Active |
| C[C@@H](C(=O)O)N(Cc1cccc(C(=O)O)n1)Cc1cccc(C(=O)O)n1 | 83 | inactive | 95 | 5.77 | 128 (≈ 356 µM) | inactive | inactive | Active | 100 | > 1020 | < 7 | Non-Toxic | 100 | Non-Toxic | Non-Toxic | Non-Toxic | Non-Toxic | Non-Toxic | Non-Toxic | Non-Toxic | pKi [20]: 5.77; pKi [21]: 5.81; Activity [22]: inactive; Activity [23]: inactive; Activity (Escherichia coli [24]): <10%; Activity (Klebsiella pneumoniae [25]): Active; Activity (Klebsiella pneumoniae [26]): Active; Activity (Klebsiella pneumoniae [27]): inactive; Activity (Klebsiella pneumoniae [28]): inactive; Activity (Klebsiella pneumoniae [29]): Active; fractional inhibitory concentration index (FICI) (Escherichia coli [30]): 0.14; fractional inhibitory concentration index (FICI) (Escherichia coli [31]): 0.07; Activity (Escherichia coli [32]): Active |
